Source: PMC9300271, “Identifying Active Compounds and Mechanisms of Citrus changshan-Huyou Y. B. Chang against URTIs-Associated Inflammation by Network Pharmacology in Combination with Molecular Docking” (Evidence-based Complementary and Alternative Medicine : eCAM, 2022)

How the values were obtained:
[1] = retrieved from database; ref TCMSP database [18]; cited from earlier work
[2] = target: PI3Kα (p110α/p85α) (Homo sapiens, UniProt P42336); test: ADP-Glo Kinase Assay, inhibition of PI3Kα
[3] = target: PI3Kβ (p110β/p85α) (Homo sapiens, UniProt P42338); test: ADP-Glo Kinase Assay, inhibition of PI3Kβ
Chain of PI3Kβ (p110β/p85α) (P42338 whole entry): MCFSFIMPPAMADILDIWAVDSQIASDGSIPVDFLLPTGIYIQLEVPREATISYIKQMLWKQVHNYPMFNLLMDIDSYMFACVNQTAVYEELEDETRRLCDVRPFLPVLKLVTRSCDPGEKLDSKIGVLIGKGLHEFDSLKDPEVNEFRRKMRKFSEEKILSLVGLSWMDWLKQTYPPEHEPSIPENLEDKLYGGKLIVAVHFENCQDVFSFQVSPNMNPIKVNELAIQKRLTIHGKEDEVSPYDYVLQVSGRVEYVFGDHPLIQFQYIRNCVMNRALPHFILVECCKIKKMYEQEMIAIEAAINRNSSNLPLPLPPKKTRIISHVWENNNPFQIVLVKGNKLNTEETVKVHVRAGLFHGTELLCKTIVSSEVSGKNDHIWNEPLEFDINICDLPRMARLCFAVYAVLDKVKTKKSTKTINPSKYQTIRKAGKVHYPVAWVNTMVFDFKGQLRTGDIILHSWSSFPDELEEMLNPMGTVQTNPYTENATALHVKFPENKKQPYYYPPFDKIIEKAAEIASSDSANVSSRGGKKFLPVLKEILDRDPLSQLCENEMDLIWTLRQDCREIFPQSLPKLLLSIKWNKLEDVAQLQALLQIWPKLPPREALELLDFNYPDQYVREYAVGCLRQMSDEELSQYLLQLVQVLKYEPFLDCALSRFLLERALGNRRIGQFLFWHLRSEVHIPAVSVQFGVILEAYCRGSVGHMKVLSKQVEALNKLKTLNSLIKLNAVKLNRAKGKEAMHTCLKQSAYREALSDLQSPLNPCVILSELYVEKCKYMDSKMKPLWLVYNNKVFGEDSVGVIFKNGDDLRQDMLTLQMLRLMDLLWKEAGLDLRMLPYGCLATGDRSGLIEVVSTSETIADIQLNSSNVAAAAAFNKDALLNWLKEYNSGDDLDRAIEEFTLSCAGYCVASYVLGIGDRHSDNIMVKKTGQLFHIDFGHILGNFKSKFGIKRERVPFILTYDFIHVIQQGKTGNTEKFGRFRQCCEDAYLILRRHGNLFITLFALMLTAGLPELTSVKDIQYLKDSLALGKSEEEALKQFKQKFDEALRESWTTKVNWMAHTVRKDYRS
Chain of PI3Kβ (p110β/p85α) (P27986 whole entry partner): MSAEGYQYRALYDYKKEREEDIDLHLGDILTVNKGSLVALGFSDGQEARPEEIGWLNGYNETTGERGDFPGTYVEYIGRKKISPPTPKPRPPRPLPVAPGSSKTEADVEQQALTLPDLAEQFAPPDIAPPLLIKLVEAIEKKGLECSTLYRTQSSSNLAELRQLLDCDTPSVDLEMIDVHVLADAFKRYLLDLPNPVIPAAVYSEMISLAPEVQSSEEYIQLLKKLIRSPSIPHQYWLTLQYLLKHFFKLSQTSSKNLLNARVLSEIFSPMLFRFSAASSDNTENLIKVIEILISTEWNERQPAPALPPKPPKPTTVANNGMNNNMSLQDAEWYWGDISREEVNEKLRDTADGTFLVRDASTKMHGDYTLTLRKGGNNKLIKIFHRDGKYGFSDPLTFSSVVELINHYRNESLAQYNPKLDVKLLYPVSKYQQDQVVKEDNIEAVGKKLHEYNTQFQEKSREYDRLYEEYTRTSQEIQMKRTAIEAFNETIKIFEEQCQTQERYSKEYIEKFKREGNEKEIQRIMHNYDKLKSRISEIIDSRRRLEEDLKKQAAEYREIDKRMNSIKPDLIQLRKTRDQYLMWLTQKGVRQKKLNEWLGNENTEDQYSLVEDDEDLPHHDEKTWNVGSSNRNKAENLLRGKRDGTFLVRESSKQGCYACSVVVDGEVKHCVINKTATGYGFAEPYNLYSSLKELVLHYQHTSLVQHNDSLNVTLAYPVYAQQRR

[4] = target: PI3Kγ (p120γ) (Homo sapiens, UniProt P48736); test: ADP-Glo Kinase Assay, inhibition of PI3Kγ
Chain of PI3Kγ (p120γ) (P48736 whole entry): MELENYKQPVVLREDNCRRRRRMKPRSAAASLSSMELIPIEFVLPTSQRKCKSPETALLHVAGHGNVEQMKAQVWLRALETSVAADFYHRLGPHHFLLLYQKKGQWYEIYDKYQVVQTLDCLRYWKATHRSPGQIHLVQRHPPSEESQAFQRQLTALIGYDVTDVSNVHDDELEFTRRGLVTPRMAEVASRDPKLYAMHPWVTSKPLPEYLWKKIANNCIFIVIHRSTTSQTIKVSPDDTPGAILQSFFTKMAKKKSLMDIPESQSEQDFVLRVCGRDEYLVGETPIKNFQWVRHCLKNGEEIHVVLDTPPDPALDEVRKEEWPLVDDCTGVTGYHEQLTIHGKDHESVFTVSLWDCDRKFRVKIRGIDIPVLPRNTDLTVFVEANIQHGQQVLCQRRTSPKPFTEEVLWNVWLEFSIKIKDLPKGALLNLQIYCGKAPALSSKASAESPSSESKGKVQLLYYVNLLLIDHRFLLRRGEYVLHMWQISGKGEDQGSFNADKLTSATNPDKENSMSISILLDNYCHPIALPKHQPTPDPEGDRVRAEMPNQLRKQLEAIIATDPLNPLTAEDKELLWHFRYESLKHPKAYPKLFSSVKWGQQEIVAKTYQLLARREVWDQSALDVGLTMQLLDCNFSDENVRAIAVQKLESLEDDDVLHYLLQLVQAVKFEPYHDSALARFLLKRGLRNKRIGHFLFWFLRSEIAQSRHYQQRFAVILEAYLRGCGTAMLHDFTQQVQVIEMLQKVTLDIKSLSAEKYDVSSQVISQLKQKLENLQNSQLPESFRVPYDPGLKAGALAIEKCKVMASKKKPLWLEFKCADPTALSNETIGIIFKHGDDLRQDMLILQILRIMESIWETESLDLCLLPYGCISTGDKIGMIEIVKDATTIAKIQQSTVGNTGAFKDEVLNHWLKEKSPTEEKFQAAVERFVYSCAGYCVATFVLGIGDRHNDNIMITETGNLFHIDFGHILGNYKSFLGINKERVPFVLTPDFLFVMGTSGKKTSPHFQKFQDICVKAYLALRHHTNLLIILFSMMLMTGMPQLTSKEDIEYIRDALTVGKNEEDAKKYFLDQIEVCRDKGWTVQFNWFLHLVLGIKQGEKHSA

[5] = target: PI3Kδ (p110δ/p85α) (Homo sapiens, UniProt O00329); test: ADP-Glo Kinase Assay, inhibition of PI3Kδ
Chain of PI3Kδ (p110δ/p85α) (O00329 whole entry): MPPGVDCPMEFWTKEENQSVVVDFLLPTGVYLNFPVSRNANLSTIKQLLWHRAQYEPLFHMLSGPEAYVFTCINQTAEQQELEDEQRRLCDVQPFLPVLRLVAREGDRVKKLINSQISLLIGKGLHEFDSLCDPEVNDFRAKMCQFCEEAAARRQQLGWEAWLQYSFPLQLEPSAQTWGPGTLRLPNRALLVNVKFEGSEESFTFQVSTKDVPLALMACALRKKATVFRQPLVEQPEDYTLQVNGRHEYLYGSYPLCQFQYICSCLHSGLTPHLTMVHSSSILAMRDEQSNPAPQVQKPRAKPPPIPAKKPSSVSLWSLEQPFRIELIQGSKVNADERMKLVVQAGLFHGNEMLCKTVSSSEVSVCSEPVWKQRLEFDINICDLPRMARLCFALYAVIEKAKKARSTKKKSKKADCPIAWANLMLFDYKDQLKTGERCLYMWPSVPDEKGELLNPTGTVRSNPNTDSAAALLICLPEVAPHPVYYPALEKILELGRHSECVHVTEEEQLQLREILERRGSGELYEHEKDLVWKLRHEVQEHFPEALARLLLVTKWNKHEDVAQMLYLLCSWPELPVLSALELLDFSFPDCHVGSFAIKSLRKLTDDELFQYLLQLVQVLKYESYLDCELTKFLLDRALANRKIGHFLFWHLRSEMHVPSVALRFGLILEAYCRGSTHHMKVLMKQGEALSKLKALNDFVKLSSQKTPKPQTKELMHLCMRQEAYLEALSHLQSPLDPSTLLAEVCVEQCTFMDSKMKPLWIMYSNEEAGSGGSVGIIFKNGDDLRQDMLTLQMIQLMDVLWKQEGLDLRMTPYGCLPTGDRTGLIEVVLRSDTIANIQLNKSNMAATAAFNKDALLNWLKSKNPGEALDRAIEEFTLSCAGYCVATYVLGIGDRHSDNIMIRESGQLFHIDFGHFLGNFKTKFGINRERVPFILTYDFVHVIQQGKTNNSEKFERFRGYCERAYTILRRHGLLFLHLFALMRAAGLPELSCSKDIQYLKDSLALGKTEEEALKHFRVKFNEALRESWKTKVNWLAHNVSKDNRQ
Chain of PI3Kδ (p110δ/p85α) (P27986 whole entry partner): as the sequence (P27986 whole entry partner) above

[6] = parameters: method as in TCMSP database [18]; details: retrieved from database; ref TCMSP database [18]; in h (unit assumed); cited from earlier work

Chain of PI3Kα (p110α/p85α) (P42336 whole entry): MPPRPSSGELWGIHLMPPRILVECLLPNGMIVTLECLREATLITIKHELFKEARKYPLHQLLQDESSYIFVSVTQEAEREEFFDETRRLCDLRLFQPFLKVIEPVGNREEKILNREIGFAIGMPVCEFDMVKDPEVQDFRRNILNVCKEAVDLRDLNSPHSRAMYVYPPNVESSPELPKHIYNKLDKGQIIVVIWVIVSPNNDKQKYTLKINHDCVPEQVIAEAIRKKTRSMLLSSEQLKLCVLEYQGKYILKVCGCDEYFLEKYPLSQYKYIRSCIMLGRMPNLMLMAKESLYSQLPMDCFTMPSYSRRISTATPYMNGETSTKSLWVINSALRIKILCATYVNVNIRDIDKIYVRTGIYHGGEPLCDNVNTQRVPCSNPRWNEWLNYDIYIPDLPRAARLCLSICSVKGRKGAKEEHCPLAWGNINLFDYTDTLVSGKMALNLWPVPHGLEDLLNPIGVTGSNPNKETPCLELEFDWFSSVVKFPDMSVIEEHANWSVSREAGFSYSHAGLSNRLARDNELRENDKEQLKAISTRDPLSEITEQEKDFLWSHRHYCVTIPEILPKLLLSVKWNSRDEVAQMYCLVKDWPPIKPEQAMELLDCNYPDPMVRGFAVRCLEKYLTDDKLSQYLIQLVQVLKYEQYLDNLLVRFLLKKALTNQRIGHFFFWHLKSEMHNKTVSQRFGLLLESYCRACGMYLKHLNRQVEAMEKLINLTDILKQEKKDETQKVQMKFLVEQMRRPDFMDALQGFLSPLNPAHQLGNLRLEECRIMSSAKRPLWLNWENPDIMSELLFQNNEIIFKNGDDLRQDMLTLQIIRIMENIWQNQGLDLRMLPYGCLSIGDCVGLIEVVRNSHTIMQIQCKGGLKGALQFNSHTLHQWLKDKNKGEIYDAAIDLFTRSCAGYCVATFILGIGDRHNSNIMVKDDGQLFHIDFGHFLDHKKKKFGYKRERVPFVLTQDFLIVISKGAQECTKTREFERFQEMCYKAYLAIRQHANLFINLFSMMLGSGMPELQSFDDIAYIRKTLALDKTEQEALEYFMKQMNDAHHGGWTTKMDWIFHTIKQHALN
Chain of PI3Kα (p110α/p85α) (P27986 whole entry partner): as the sequence (P27986 whole entry partner) above

| SMILES | OB (oral bioavailability) [1] [%] | IC50 [2] [µM] | IC50 [3] [µM] | IC50 [4] [µM] | IC50 [5] [µM] | HL (drug half-life) [6] |
| --- | --- | --- | --- | --- | --- | --- |
| O=C1C[C@@H](c2ccc(O)cc2)Oc2cc(O)cc(O)c21 [NAR, naringenin] | 59.29 | > 40 | > 40 | > 40 | > 40 | – |
| COc1ccc(-c2cc(=O)c3c(OC)c(OC)c(OC)c(OC)c3o2)cc1 [TAN, tangeretin] | 21.38 | > 40 | > 40 | 17.7 ± 1.16 | > 40 | – |
| COc1ccc([C@@H]2CC(=O)c3c(O)cc(O)cc3O2)cc1O [HES, hesperetin] | 70.31 | > 40 | > 40 | > 40 | > 40 | 15.78 |
| O=c1cc(-c2ccc(O)c(O)c2)oc2cc(O)cc(O)c12 [LUT, luteolin] | 36.16 | 2.49 ± 0.34 | 2.95 ± 0.19 | 5.79 ± 0.1 | 1.55 ± 0.15 | 15.94 |
| CC(C)=CCC/C(C)=C/COc1ccc2ccc(=O)oc2c1 [AUR, auraptene] | 25.62 | > 40 | > 40 | 13.8 ± 1.31 | > 40 | – |
| COc1ccc(-c2cc(=O)c3c(OC)c(OC)c(OC)c(OC)c3o2)cc1OC [NOB, nobiletin] | 61.67 | – | – | – | – | 16.20 |
